Experimental data as given in the supplement of paper PMC4862054.

How the values were obtained:
Conditions in all cases: incubation time: 72 h
MFM-223 [1] = test: normalised response (% of control), CellTiter-Glo; higher = more viable cells (100 = DMSO, 0 = benzethonium chloride kill control)
Summary of the method: (§1)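 For each plate, 0.1 % DMSO was set to 100 and a positive kill control to 0. Breast cancer cell lines (20 µl suspension) were seeded into 384-well plates already holding compound at 5 concentrations in 10-fold steps over a 10,000-fold range chosen per compound, and incubated for 72 h. CellTox Green fluorescence at 485/520 nm was read before CellTiter-Glo luminescence, which followed 10 min at room temperature. Each value is the normalised signal at one concentration.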

CAL-148 [2] = test: as above
Summary of the method: as §1

CAL-85-1 [3] = test: as above
Summary of the method: as §1

HDQ-P1 [4] = test: as above
Summary of the method: as §1

BT-474 [5] = test: as above
Summary of the method: as §1

DU-4475 [6] = test: as above
Summary of the method: as §1

CAL-120 [7] = test: as above
Summary of the method: as §1

HCC1937 [8] = test: as above
Summary of the method: as §1

HCC1599 [9] = test: as above
Summary of the method: as §1

MDA-MB-436 [10] = test: as above
Summary of the method: as §1

MDA-MB-231 [11] = test: as above
Summary of the method: as §1

MCF-10A = test: as above
Summary of the method: as §1

MDA-MB-453 [12] = test: as above
Summary of the method: as §1

HCC1143 [13] = test: as above
Summary of the method: as §1

BT-549 [14] = test: as above
Summary of the method: as §1

Hs578T [15] = test: as above
Summary of the method: as §1

MDA-MB-468 [16] = test: as above
Summary of the method: as §1

CAL-51 [17] = test: as above
Summary of the method: as §1

MFM-223 [18] = test: normalised viability (% of control), CellTiter-Blue; higher = more viable cells (100 = DMSO, 0 = benzethonium chloride kill control)
Description: (§2)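 DSRT, CellTiter-Blue viability, 72 h incubation. Signal is normalised to DMSO and benzethonium chloride controls. Value is the normalised response at dose 1.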

CAL-148 [19] = test: as above
Description: as §2

CAL-85-1 [20] = test: as above
Description: as §2

HDQ-P1 [21] = test: as above
Description: as §2

BT-474 [22] = test: as above
Description: as §2

DU-4475 [23] = test: as above
Description: as §2

CAL-120 [24] = test: as above
Description: as §2

HCC1937 [25] = test: as above
Description: as §2

HCC1599 [26] = test: as above
Description: as §2

MDA-MB-436 [27] = test: as above
Description: as §2

SK-BR-3 [28] = test: as above
Description: as §2

MDA-MB-231 [29] = test: as above
Description: as §2

MDA-MB-453 [30] = test: as above
Description: as §2

HCC1143 [31] = test: as above
Description: as §2

BT-549 [32] = test: as above
Description: as §2

Hs578T [33] = test: as above
Description: as §2

MDA-MB-468 [34] = test: as above
Description: as §2

CAL-51 [35] = test: as above
Description: as §2

SK-BR-3 [36] = test: normalised response (% of control), CellTiter-Glo; higher = more viable cells (100 = DMSO, 0 = benzethonium chloride kill control)
Summary of the method: as §1

Work on CO[C@H]1C[C@@H]2CC[C@@H](C)[C@@](O)(O2)C(=O)C(=O)N2CCCC[C@H]2C(=O)O[C@H]([C@H](C)C[C@@H]2CC[C@@H](OC(=O)C(C)(CO)CO)[C@H](OC)C2)CC(=O)[C@H](C)/C=C(\C)[C@@H](O)[C@@H](OC)C(=O)[C@H](C)C[C@H](C)/C=C/C=C/C=C/1C [Temsirolimus] (0.1 nM) yielded a normalised response (MFM-223 [1]) of 103%, a normalised response (CAL-148 [2]) of 99.7% and a normalised response (CAL-85-1 [3]) of 100%. The normalised response (HDQ-P1 [4]) was 101%, the normalised response (BT-474 [5]) was 104% and the normalised response (DU-4475 [6]) was 104%. For the same compound, the normalised response (CAL-120 [7]) was 97.5%, the normalised response (HCC1937 [8]) was 91.1% and the normalised response (HCC1599 [9]) was 89.3%. For the same compound, the normalised response (MDA-MB-436 [10]) was 103%, the normalised response (MDA-MB-231 [11]) was 101% and the normalised response (MCF-10A) was 104%. For the same compound, the normalised response (MDA-MB-453 [12]) was 104%, the normalised response (HCC1143 [13]) was 102% and the normalised response (BT-549 [14]) was 86.6%. For the same compound, the normalised response (Hs578T [15]) was 88.2%, the normalised response (MDA-MB-468 [16]) was 88.6% and the normalised response (CAL-51 [17]) was 106%. The normalised viability (MFM-223 [18]) was 77.8%, the normalised viability (CAL-148 [19]) was 96.1% and the normalised viability (CAL-85-1 [20]) was 79.7%. It also gave a normalised viability (HDQ-P1 [21]) of 105%, a normalised viability (BT-474 [22]) of 95% and a normalised viability (DU-4475 [23]) of 99.3%. For the same compound, the normalised viability (CAL-120 [24]) was 86.7%, the normalised viability (HCC1937 [25]) was 55.3% and the normalised viability (HCC1599 [26]) was 99.8%. The normalised viability (MDA-MB-436 [27]) was 92.4%, the normalised viability (SK-BR-3 [28]) was 92.6% and the normalised viability (MDA-MB-231 [29]) was 83.6%. For the same compound, the normalised viability (MDA-MB-453 [30]) was 88.1%, the normalised viability (HCC1143 [31]) was 94.1% and the normalised viability (BT-549 [32]) was 92.8%. For the same compound, the normalised viability (Hs578T [33]) was 86.6%, the normalised viability (MDA-MB-468 [34]) was 93.5% and the normalised viability (CAL-51 [35]) was 98.3%.

CN(C)C/C=C/C(=O)Nc1cc2c(Nc3ccc(F)c(Cl)c3)ncnc2cc1O[C@H]1CCOC1 [Afatinib] (1 nM) showed a normalised response (MFM-223 [1]) of 97.8%, a normalised response (CAL-148 [2]) of 90.3% and a normalised response (CAL-85-1 [3]) of 108%. The normalised response (HDQ-P1 [4]) was 98.4%, the normalised response (BT-474 [5]) was 97.5% and the normalised response (DU-4475 [6]) was 109%. It also gave a normalised response (CAL-120 [7]) of 94.4%, a normalised response (HCC1937 [8]) of 97.2% and a normalised response (HCC1599 [9]) of 104%. It also gave a normalised response (MDA-MB-436 [10]) of 105%, a normalised response (SK-BR-3 [36]) of 98.9% and a normalised response (MDA-MB-231 [11]) of 97.7%. For the same compound, the normalised response (MCF-10A) was 92.7%, the normalised response (MDA-MB-453 [12]) was 112% and the normalised response (HCC1143 [13]) was 106%. It also gave a normalised response (BT-549 [14]) of 96.9%, a normalised response (Hs578T [15]) of 96.5% and a normalised response (MDA-MB-468 [16]) of 109%. The normalised response (CAL-51 [17]) was 116%, the normalised viability (MFM-223 [18]) was 93.2% and the normalised viability (CAL-148 [19]) was 106%. It also gave a normalised viability (CAL-85-1 [20]) of 82%, a normalised viability (HDQ-P1 [21]) of 74.3% and a normalised viability (BT-474 [22]) of 85.9%. It also gave a normalised viability (DU-4475 [23]) of 96.4%, a normalised viability (CAL-120 [24]) of 69.7% and a normalised viability (HCC1937 [25]) of 85.4%. It also gave a normalised viability (HCC1599 [26]) of 84.5%, a normalised viability (MDA-MB-436 [27]) of 88.4% and a normalised viability (SK-BR-3 [28]) of 89.2%. For the same compound, the normalised viability (MDA-MB-231 [29]) was 92.4%, the normalised viability (MDA-MB-453 [30]) was 101% and the normalised viability (HCC1143 [31]) was 83.8%. For the same compound, the normalised viability (BT-549 [32]) was 111%, the normalised viability (Hs578T [33]) was 102% and the normalised viability (MDA-MB-468 [34]) was 107%. It also gave a normalised viability (CAL-51 [35]) of 109%.

CN1CCC(COc2cnc(-c3cccc(Cn4nc(-c5cccc(C#N)c5)ccc4=O)c3)nc2)CC1 (1 nM) was tested, and the normalised response (MFM-223 [1]) was 93.6%, the normalised response (CAL-148 [2]) was 97.8% and the normalised response (CAL-85-1 [3]) was 90.4%. The normalised response (HDQ-P1 [4]) was 95.3%, the normalised response (BT-474 [5]) was 101% and the normalised response (DU-4475 [6]) was 100%. The normalised response (CAL-120 [7]) was 99.1%, the normalised response (HCC1937 [8]) was 103% and the normalised response (HCC1599 [9]) was 112%. For the same compound, the normalised response (MDA-MB-436 [10]) was 91.4%, the normalised response (SK-BR-3 [36]) was 71% and the normalised response (MDA-MB-231 [11]) was 95.1%. The normalised response (MCF-10A) was 93.9%, the normalised response (MDA-MB-453 [12]) was 91.3% and the normalised response (HCC1143 [13]) was 102%. It also gave a normalised response (BT-549 [14]) of 93.5%, a normalised response (Hs578T [15]) of 96.7% and a normalised response (MDA-MB-468 [16]) of 92.3%. It also gave a normalised response (CAL-51 [17]) of 127%, a normalised viability (MFM-223 [18]) of 101% and a normalised viability (CAL-148 [19]) of 89.6%. For the same compound, the normalised viability (CAL-85-1 [20]) was 99.6%, the normalised viability (HDQ-P1 [21]) was 77.4% and the normalised viability (BT-474 [22]) was 83.7%. The normalised viability (DU-4475 [23]) was 100%, the normalised viability (CAL-120 [24]) was 102% and the normalised viability (HCC1937 [25]) was 86.7%. The normalised viability (HCC1599 [26]) was 110%, the normalised viability (MDA-MB-436 [27]) was 98.7% and the normalised viability (SK-BR-3 [28]) was 96.4%. The normalised viability (MDA-MB-231 [29]) was 77.3%, the normalised viability (MDA-MB-453 [30]) was 104% and the normalised viability (HCC1143 [31]) was 110%. The normalised viability (BT-549 [32]) was 93.2%, the normalised viability (Hs578T [33]) was 98.4% and the normalised viability (MDA-MB-468 [34]) was 92.5%. It also gave a normalised viability (CAL-51 [35]) of 90.5%.
